Assay [1] concerns Aurantiochytrium sp. HS399. Particulars: cultures with a pH of 5 and above. As for the experimental part: Aurantiochytrium was grown in an acetic acid/pH-auxostat mode in 700 ml bubble column at 27° C. in sterile conditions. […] Trace and vitamins stocks were prepared according to Ashford, et al. 2000.
Assay [2] has as its system Aurantiochytrium sp. HS399. Particulars: Table 19. As for the experimental part:
(§1) An experiment was performed to determine the effectiveness of growing Aurantiochytrium with combination of acetate and a non-acetate organic carbon sources, in this case glycerol. Aurantiochytrium sp. HS399 was grown in a 100 L open pond. The base medium contained: sodium acetate (1 g/L), glycerol (30 g/L) monosodium glutamate monohydrate (2.5 g/L) NaCl (12.5 g/L), MgSO4.7H2O (2.5 g/L), KCl (0.5 g/L), CaCl2 (0.1 g/L), KH2PO4 (0.5 g/L), vitamins (1 ml/L), and trace metal (5 ml/L). Trace and vitamins stocks were prepared according to Ashford, et al. 2000. Lipids 35, 1377-1386. The ponds were inoculated at 1 v/v using exponentially growing cultures. Aeration was maintained at 0.5 vvm using a porous hose. In one treatment the pH was controlled at a set point of pH 7 with hydrochloric acid, and no acetic acid was supplied (i.e., glycerol only). In another treatment acetic acid was supplied by a pH auxostat system at a set point of 5.5 in addition to the glycerol. The impact on microalgae growth and contamination was analyzed by measuring dry weights (filtration), residual acetate concentration in the culture medium (HPLC), and total aerobic bacteria counts (petrifilms) daily.

The subject of a further assay is aerobic bacteria. Particulars: throughout the batch, Table 20. As for the experimental part: as §1
The test system of assay [3] is Aurantiochytrium sp. HS399. Particulars: FIG. 1; pH set point 5.5 and 7.
Procedure: An experiment was performed to determine the ability of Aurantiochytrium to grow on combination of acetate and another organic carbon source in axenic and contaminated culture conditions. […] The initial culture medium was supplemented with 30 g/L glycerol and 0.5 g/L acetate. […] Cell dry weights were measured daily.
Assay [4] relates to Aurantiochytrium sp. HS399. Particulars: for growth with nitrogen source under an acetic acid pH auxostat system: pH 5.5 or 6.0.
Assay [5] concerns Aurantiochytrium sp. HS399. As for the experimental part: An experiment was performed to determine if Aurantiochytrium sp. HS399 can grow using acetate as an organic carbon source and ammonia as a nitrogen source. Aurantiochytrium was grown in an acetic acid/pH-auxostat mode in 700 ml bubble column at 27° C. in sterile conditions. The base medium contained: NaCl (12.5 g/L), MgSO4.7H2O (2.5 g/L), KCl (0.5 g/L). CaCl2) (0.1 g/L), KH2PO4 (0.125 g/L) vitamins (0.25 ml/L) and trace metal (1.25 ml/L). Trace and vitamins stocks were prepared according to Ashford, et al. 2000. Lipids 35, 1377-1386. A blend of ammonium (hydroxide and acetic acid 1:5 w/w) with slightly higher molar ratio of acetic acid (1:1.1) was prepared with the aim maintain residual acetate present until the end of the pH auxostat. The pH auxostat was set to pH 6.6. The ammonium acetate blend was added to the treatments in order to match the following concentrations: 1×: 1.07 g/L NH4, 5.68 g/L acetic acid, 3×: 3.21 g/L NH4, 17.04 g/L acetic acid, 5×: 5.35 g/L NH4, 28.40 g/L acetic acid, 7×: 7.49 g/L NH4, 39.76 g/L acetic acid.

The results in this text go back to US20190218504A1, “METHODS OF CULTURING AURANTIOCHYTRIUM USING ACETATE AS AN ORGANIC CARBON SOURCE” (HELIAE DEVELOPMENT LLC, priority 2016, published 2019).

Like-named read-outs stand apart in the source and are kept apart here. Some results are limits rather than exact numbers.

For the compound `CC(=O)O` [Acetic Acid, acetic acid], the “growth using acetate as an organic carbon source” value in assay [1] is “able to grow”. In addition, the “growth compared to the other culture (glycerol only, HCl)” value in assay [2] is on record as “comparable growth”. Also, the “decrease of aerobic bacteria counts as compared to the other treatment” value with aerobic bacteria was no less than 3 log. Also, the “growth in axenic and contaminated cultures versus cultures not receiving acetic acid” value in assay [3] was “comparable growth”.

Consider `N[C@@H](CCC(=O)O)C(=O)[O-].[Na+]` [MSG, monosodium glutamate], for which the “Cell Dry Weight” value in assay [4] (pH 5.5, 2.5 g/L, time 1 d) was 2.6 ± 0.0 g/L; in assay [4] (pH 5.5, 2.5 g/L, time 2 d), 5.2 ± 0.0 g/L; in assay [4] (pH 5.5, 2.5 g/L, time 3 d) it was 7.5 ± 0.2 g/L; in assay [4] (pH 5.5, 2.5 g/L, time 4 d), 8.8 ± 0.4 g/L; in assay [4] (pH 5.5, 2.5 g/L, time 5 d), 10.4 ± 0.4 g/L; in assay [4] (pH 5.5, 2.5 g/L, time 6 d), 11.4 ± 0.3 g/L. For the same compound, the “Cell Dry Weight” value in assay [4] (pH 6.0, 10 g/L, time 1 d) is on record as 3.6 ± 0.3 g/L; in assay [4] (pH 6.0, 10 g/L, time 2 d), 6.1 ± 0.1 g/L; in assay [4] (pH 6.0, 10 g/L, time 4 d), 7.9 ± 2.0 g/L; in assay [4] (pH 6.0, 10 g/L, time 6 d), 11.9 ± 2.6 g/L. The “growth with nitrogen source under an acetic acid pH auxostat system” value in assay [4] is listed as “could grow”.

On to `CC(=O)O.N` [NH4AoC, ammonium acetate], for which the “Cell Dry Weight” value in assay [5] (1X (1.07 g/L NH4, 5.68 g/L acetic acid), time 0 d) amounted to 0.6 ± 0.0 g/L; in assay [5] (1X, time 1 d), 2.2 ± 0.0 g/L; in assay [5] (1X, time 2 d) it was 4.8 ± 0.0 g/L; in assay [5] (1X, time 3 d) it was 7.0 ± 0.1 g/L; in assay [5] (1X, time 4 d) it was 7.9 ± 0.1 g/L; in assay [5] (1X, time 5 d), 8.7 ± 0.2 g/L. The “Cell Dry Weight” value is listed as 9.4 ± 0.1 g/L in assay [5] (1X, time 6 d); 0.6 ± 0.0 g/L in assay [5] (3X (3.21 g/L NH4, 17.04 g/L acetic acid), time 0 d); 1.7 ± 0.1 g/L in assay [5] (3X, time 1 d); 3.6 ± 0.3 g/L in assay [5] (3X, time 2 d); 5.2 ± 0.1 g/L in assay [5] (3X, time 3 d); 6.5 ± 0.3 g/L in assay [5] (3X, time 4 d). In addition, the “Cell Dry Weight” value was 6.8 ± 0.3 g/L in assay [5] (3X, time 5 d); 7.5 ± 0.1 g/L in assay [5] (3X, time 6 d); 0.6 ± 0.0 g/L in assay [5] (5X (5.35 g/L NH4, 28.40 g/L acetic acid), time 0 d); 0.8 ± 0.2 g/L in assay [5] (5X, time 1 d); 0.7 ± 0.1 g/L in assay [5] (5X, time 2 d); 0.7 ± 0.0 g/L in assay [5] (5X, time 3 d). The “Cell Dry Weight” value in assay [5] (5X, time 4 d) is listed as 0.8 ± 0.1 g/L; in assay [5] (5X, time 5 d), 0.3 ± 0.0 g/L; in assay [5] (5X, time 6 d), 0.4 ± 0.0 g/L; in assay [5] (7X (7.49 g/L NH4, 39.76 g/L acetic acid), time 0 d), 0.6 ± 0.0 g/L; in assay [5] (7X, time 1 d), 1.0 ± 0.2 g/L; in assay [5] (7X, time 2 d), 0.6 ± 0.1 g/L. Further, the “Cell Dry Weight” value is 0.7 ± 0.0 g/L in assay [5] (7X, time 3 d); 0.8 ± 0.1 g/L in assay [5] (7X, time 4 d); 0.3 ± 0.0 g/L in assay [5] (7X, time 5 d); 0.6 ± 0.1 g/L in assay [5] (7X, time 6 d); 0.2 ± 0.0 g/L in assay [4] (pH 5.5, 1.1 g/L, time 0 d); 2.5 ± 0.1 g/L in assay [4] (pH 5.5, 1.1 g/L, time 1 d). Moreover, the “Cell Dry Weight” value in assay [4] (pH 5.5, 1.1 g/L, time 2 d) came to 4.9 ± 0.1 g/L; in assay [4] (pH 5.5, 1.1 g/L, time 3 d) it was 7.5 ± 0.3 g/L; in assay [4] (pH 5.5, 1.1 g/L, time 4 d), 8.9 ± 0.2 g/L; in assay [4] (pH 5.5, 1.1 g/L, time 5 d) it was 10.7 ± 0.3 g/L; in assay [4] (pH 5.5, 1.1 g/L, time 6 d), 11.8 ± 0.1 g/L; in assay [4] (pH 6.0, 4.5 g/L, time 0 d) it was 0.2 ± 0.0 g/L. Besides, the “Cell Dry Weight” value in assay [4] (pH 6.0, 4.5 g/L, time 1 d) turned out to be 2.6 ± 0.1 g/L; in assay [4] (pH 6.0, 4.5 g/L, time 2 d), 5.4 ± 0.4 g/L; in assay [4] (pH 6.0, 4.5 g/L, time 3 d) it was 7.8 ± 0.1 g/L; in assay [4] (pH 6.0, 4.5 g/L, time 4 d), 9.8 ± 0.5 g/L; in assay [4] (pH 6.0, 4.5 g/L, time 5 d), 11.9 ± 0.2 g/L; in assay [4] (pH 6.0, 4.5 g/L, time 6 d), 13.8 ± 0.2 g/L. Besides, the “growth on ammonium acetate blends” value in assay [5] (1× and 3× blends, pH 6.6) was “able to grow”. Besides, the “growth with nitrogen source under an acetic acid pH auxostat system” value in assay [4] is listed as “could grow”.
